Patent US10010507B1, “Pharmaceutical formulations of a bruton's tyrosine kinase inhibitor” (Pharmacyclics LLC, priority 2015, dated 2018)
pEC50: −log10 of the molar value. Like-named read-outs stand apart in the source and are kept apart here.

Tested on: OCI-Ly10
Test: Inhibition of growth of OCI-Ly10 (ABC-DLBCL cells)
Type: cell-based
Conditions: Homo sapiens
Excerpt: DLBCL cells of the ABC subtype, such as OCI-Ly10, have chronic active BCR signaling and are very sensitive to the Btk inhibitor described herein. […] In addition, induction of apoptosis, as shown by capsase activation, Annexin-V flow cytometry and increase in sub-GO fraction is observed in OCILy 10. Both sensitive and resistant cells express Btk at similar levels, and the active site of Btk is fully occupied by the inhibitor in both as shown using a fluorescently labeled affinity probe. […] The activity of Btk inhibitors in the cell lines studied herein are also characterized by comparing signal transduction profiles (Btk, PLCγ, ERK, NF-kB, AKT), cytokine secretion profiles and mRNA expression profiles, both with and without BCR stimulation, and observed significant differences in these profiles that lead to clinical biomarkers that identify the most sensitive patient populations to Btk inhibitor treatment. See U.S. Pat. No. 7,711,492 and Staudt et al., Nature, Vol. 463, Jan. 7, 2010, pp. 88-92, the contents of which are incorporated by reference in their entirety.

- pEC50 (read-out: EC50 1 hour pulse, growth of OCI-Ly10, 1 hour pulse): 7.30
- pEC50 (growth of OCI-Ly10, continuous exposure, read-out: EC50 continuous exposure): 8.00
SMILES: C=CC(=O)N1CCC[C@@H](n2nc(-c3ccc(Oc4ccccc4)cc3)c3c(N)ncnc32)C1 [Compound 1, 1-((R)-3-(4-amino-3-(4-phenoxyphenyl)-1H-pyrazolo[3,4-d]pyrimidin-1-yl)piperidin-1-yl)prop-2-en-1-one]
